BindingDB's records for doi:10.1016/j.ejmech.2019.111626 (University of Illinois At Chicago, 2019)

Biological target: 5-hydroxytryptamine receptor 2A (Homo sapiens, UniProt P28223)
Assay: Agonist activity at recombinant human 5HT2A receptor expressed in Flp-In-293 cells assessed as increase in calcium influx measured for 300 secs by Fluo-4 dye based FLIPR assay

Chain of 5-hydroxytryptamine receptor 2A (P28223 whole entry): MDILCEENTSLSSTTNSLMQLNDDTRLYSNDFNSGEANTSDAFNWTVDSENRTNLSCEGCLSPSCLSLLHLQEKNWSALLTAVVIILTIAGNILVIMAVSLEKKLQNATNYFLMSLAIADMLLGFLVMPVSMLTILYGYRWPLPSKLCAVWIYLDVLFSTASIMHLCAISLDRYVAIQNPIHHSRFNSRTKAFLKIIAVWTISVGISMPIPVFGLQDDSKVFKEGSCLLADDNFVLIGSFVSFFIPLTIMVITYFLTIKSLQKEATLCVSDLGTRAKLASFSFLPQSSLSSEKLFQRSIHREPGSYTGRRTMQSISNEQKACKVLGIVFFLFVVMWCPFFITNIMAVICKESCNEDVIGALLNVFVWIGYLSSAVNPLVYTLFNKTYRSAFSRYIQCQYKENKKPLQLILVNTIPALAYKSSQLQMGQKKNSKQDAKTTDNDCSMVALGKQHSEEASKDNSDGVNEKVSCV

Q: With `NC[C@H]1C[C@]1(F)c1cccc(F)c1` as the molecule, how does the EC50 read?
A: Its EC50 is 2.69 nM.
